Laboratory results reported in publication PMC11587516 (ACS Chemical Neuroscience, 2024).
pIC50: −log10 of the molar value. Read-outs that look alike come from different tables or passages of the source.

What was measured:
[1] = system: normal human astrocytes (NHA); test: WST-1 viability and proliferation assay on normal human astrocytes; type: cell-based; conditions: 1–100 μM in culture medium; 24 and 48 h
Experimental: Taking into account the presence of BGT1 and GAT3 transporters in astrocytes, we studied the effect of compound 9 on astrocyte viability, proliferation, and homeostasis. Normal human astrocytes (NHA) were treated with 1–100 μM compound 9 in a culture medium. The WST-1 assay was used to determine the number of metabolically active cells after 24 and 48 h of incubation. […] In the next step, a higher concentration (500 μM) of the compound and a longer incubation time (72 h) were applied, and the cells were examined by phase-contrast microscopy. […] Considering the results shown in Figure 6, compound 9 was not cytotoxic toward human astrocytes under in vitro culture conditions.
Gibco Human Astrocytes (Thermo Fisher Scientific) were maintained in a humidified 5% CO2 incubator at 37 °C. The cells were cultured in Gibco Astrocyte Medium (DMEM with GlutaMAX, N-2 Supplement, and OneShot Fetal Bovine Serum) supplemented with penicillin G (100 U/mL), neomycin (10 μg/mL), and amphotericin B (0.25 μg/mL).
The effect of compound 9 on cell viability and cell proliferation was evaluated using a WST-1 assay (Roche GmbH, Mannheim, Germany) based on the cleavage of the WST-1 reagent into formazan by mitochondrial dehydrogenases in metabolically active (viable) cells. […] The absorbance was measured at 440 and 650 nm using a microplate reader Infinite 200 PRO (TECAN).

[2] = system: SH-SY5Y neuroblastoma cells; conditions: 1 mM MPP+, 24 h
Experimental: The model used mimics certain aspects of neurodegenerative diseases, where GABAergic dysfunction and neuronal death are prominent features. […] The neuroprotection studies were performed to determine the ability of compound 9 to prevent MPP^+ (1-methyl-4-phenylpyridinium) toxicity at a concentration of 1 mM, which was coincubated with compound 9 for 24 h. MPP^+ is a well-established neurotoxin that selectively damages neurons, making it a commonly used agent to model aspects of neurodegenerative conditions in vitro. It induces oxidative stress and mitochondrial dysfunction, leading to cell death. Cell viability was detected by a standard MTS assay.
Neuroprotection studies were performed according to the procedure described previously.[27] In brief, SH-SY5Y CRL-2266 (American Type Culture Collection, Manassas, VG) were seeded in microplate at a concentration of 2.5 × 10^4 cells/well in 100 μL of culture medium and cultured for 24 h at 37 °C and 5% CO2. […] Next, MPP^+ was added at a final concentration of 1 mM and the cells were placed in the incubator. After 24 h of the compound coincubation with MPP^+, the CellTiter 96 AQueous Nonradioactive Cell Proliferation Assay (MTS) was performed. The test was purchased from Promega (Madison, WI). The absorbance was measured using a microplate reader EnSpire (PerkinElmer, Waltham, MA) at 490 nm. All results were shown as mean ± SD. The statistical significances were calculated by GraphPad Prism 6.0 software.

[3] = biological target: T1, hBGT1 Q299L (Homo sapiens, UniProt P48065, Q299L); test: [3H]GABA uptake assay, hBGT1 mutant Q299L in tsA201 cells; type: cell-based
T1 construct: HA; expressed in transfected cells; host or cells: tsA201 cells (transformed HEK293), transient expression
T1 sequence (P48065 1-614 Q299L): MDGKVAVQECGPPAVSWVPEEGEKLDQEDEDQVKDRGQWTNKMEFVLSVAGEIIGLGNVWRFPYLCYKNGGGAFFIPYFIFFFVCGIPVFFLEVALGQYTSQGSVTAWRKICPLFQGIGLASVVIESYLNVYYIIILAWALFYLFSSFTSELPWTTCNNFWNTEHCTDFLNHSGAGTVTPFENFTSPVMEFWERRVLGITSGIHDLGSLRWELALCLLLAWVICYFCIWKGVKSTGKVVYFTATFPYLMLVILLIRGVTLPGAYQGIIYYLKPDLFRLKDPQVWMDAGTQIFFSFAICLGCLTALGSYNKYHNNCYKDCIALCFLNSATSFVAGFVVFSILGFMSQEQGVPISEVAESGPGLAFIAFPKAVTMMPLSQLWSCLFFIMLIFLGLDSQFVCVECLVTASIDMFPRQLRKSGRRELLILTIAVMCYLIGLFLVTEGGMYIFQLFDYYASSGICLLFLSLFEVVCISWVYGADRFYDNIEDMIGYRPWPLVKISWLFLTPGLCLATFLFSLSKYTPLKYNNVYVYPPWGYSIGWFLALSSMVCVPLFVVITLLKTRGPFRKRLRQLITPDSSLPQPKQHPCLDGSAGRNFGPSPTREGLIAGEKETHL
Experimental: To validate the molecular modeling, particularly the crucial interactions with the Glu52 and Gln299 residues, the activity of compound 9 was tested on the following hBGT1 mutants: E52A, E52Y, Q299L, and the double mutant E52A+Q299L (Figure 5 and Table 1).[14]
The CHO cells were placed in 96-well plates (approximately 50,000 cells/well) for about 24 h before the experiment. […] After incubation, cells were washed 3 times with 100 μL/well ice-cold assay buffer, 150 μL/well MicroScint20 (PerkinElmer) was subsequently added before the plate was shaken for at least 1 h. The radioactivity of each well of the plate was measured on a TopCount NXT scintillation counter. […] Data presented are the pooled data of at least three independent experiments with three technical replicates if not stated otherwise in figure legends. Concentration–response curves were fitted by nonlinear regression to the sigmoidal concentration–response model with GraphPad Prism v 9.0.
The tsA201 cell line (a transformed HEK293 cell line) has been described previously and was cultured accordingly.[20] The tsA201 cells used for transient expression of hBGT1 mutants were transfected with DNA constructs (8 μg per 10 cm plate) using 40 μL of PolyFect transfection reagent according to the manufacturer’s protocol (Qiagen). […]

[4] = biological target: T2, hGAT1 (Homo sapiens, UniProt P30531); test: [3H]GABA uptake assay, CHO cells stably expressing hGAT1; type: cell-based
T2 construct: expressed in transfected cells
T2 sequence (P30531 whole entry): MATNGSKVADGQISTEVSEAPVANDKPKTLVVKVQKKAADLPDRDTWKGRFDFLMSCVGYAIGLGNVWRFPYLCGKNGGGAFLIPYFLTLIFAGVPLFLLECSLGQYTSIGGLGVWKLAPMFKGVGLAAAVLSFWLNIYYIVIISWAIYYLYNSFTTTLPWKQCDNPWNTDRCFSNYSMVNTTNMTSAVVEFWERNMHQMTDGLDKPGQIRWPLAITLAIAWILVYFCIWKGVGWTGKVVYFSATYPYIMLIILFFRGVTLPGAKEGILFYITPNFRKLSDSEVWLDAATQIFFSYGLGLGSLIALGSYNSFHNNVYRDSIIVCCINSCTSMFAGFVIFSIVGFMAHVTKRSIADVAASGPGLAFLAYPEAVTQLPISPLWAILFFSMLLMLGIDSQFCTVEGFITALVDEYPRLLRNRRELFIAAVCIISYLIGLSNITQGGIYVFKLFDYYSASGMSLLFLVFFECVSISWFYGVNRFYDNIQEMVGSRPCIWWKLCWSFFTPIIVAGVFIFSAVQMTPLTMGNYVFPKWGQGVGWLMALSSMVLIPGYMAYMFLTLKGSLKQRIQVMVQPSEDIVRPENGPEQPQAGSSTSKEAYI

NC12CC(C(=O)O)(C1)C2 [Compound 9]
effect on astrocyte survival and proliferation (WST-1) [1]: no effect on astrocyte survival and proliferation
cell viability compared to MPP+ alone ([2]; 10 μM): increased cell viability
cell viability compared to MPP+ alone ([2]; 50 μM): significantly increased cell viability
pIC50 [3]: 4.13
decrease in activity compared with wild type hBGT1 ([3]; Q299L vs wt): more than 2 fold
pIC50 [4]: < 4.00
inhibitory effect on [3H]GABA uptake ([4]; 100 μM, CHO cells): no inhibitory effect
